Consider 4 molecules from patent US4211866A, “Acyl derivatives of 2-[3-(2-chloroethyl)-3-nitrosoureido]-2-deoxy-D-glucopyranose” (Nippon Shinyaku Co., Ltd., priority 1977, dated 1980).

A value given as a limit tells only on which side of the number the result lay.

For series [1], the system named is mouse lymphatic leukemia P-388. Nature of the series: Antileukemic activity against Leukemia P-388 in mice. It is filed as in vivo, mouse (SLC-BDF1, male). Conditions: intraperitoneal, every 24 hours, 9 doses; for Median survival time: control 10.2 days; for Increase of Life Span: vs control. On the procedure: The antitumor activity and acute toxicity of the acyl derivatives of 2-[3-(2-chloroethyl)-3-nitrosoureido]-2-deoxy-D-glucopyranose according to this invention can be conveniently observed in recognized animal models. 1,000,000 cells of mouse lymphatic leukemia P-388 were intraperitoneally transplanted into each mouse (SLC-BDF1, male, 18 g.congruent.1 g, 5 weeks old). After 24 hours and thereafter at intervals of 24 hours, a predetermined amount of an acyl derivative of 2-[3-(2-chloroethyl)-3-nitro-soureido]-2-deoxy-D-glucopyramose was intraperitoneally administered for a total of 9 doses. The mice were reared under observation.

A short description of another series: Acute toxicities in mice. Conditions: mice (male, ddy), intraperitoneal single dose, 7 days survival. It is filed as in vivo. The text has this:
Acute toxicities in mice (male, ddy).
*Intraperitoneal administration of a single dose, 7 days survival.

`O=NN(CCCl)C(=O)N[C@H]1C(O)O[C@H](CO)[C@@H](O)[C@@H]1O` (stereo partly drawn) [Chlorozotocin, 2-[3-(2-Chloroethyl)-3-nitrosoureido]-2-deoxy-D-glucopyranose]: the Median survival time in series [1] (0.125 mg/Kg/dose) is listed as 12.3 days; in series [1] (0.25 mg/Kg/dose) it was 14.5 days; in series [1] (0.5 mg/Kg/dose), 16.3 days; in series [1] (1.0 mg/Kg/dose) it was 18.8 days. The “Increase of Life Span” value worked out at 20.6% in series [1] (0.125 mg/Kg/dose), 42.2% in series [1] (0.25 mg/Kg/dose), 59.8% in series [1] (0.5 mg/Kg/dose) and 84.3% in series [1] (1.0 mg/Kg/dose). The same molecule returned an LD50 at 168 h in the series “Acute toxicities in mice” (mouse, in vivo, ip) of 45 to 47 mg/kg.
“2-[3-(2-chloroethyl-3-nitrosoureidol]-2-deoxy-D-glucopyranose tripalmitate” registered a median lethal dose (LD50) in the series “Acute toxicities in mice” of more than 800 mg/kg.
With “2-[3-(2-chloroethyl)-3-nitrosoureido]-2-deoxy-D-glucopyranose dipalmitate”, the Median survival time in series [1] (0.125 mg/Kg/dose) was 16.5 days; in series [1] (0.25 mg/Kg/dose), 17.8 days; in series [1] (0.5 mg/Kg/dose) it was 19.3 days; in series [1] (1.0 mg/Kg/dose), 21.0 days. For the same molecule, the “Increase of Life Span” value in series [1] (0.125 mg/Kg/dose) was 61.8%; in series [1] (0.25 mg/Kg/dose), 74.5%; in series [1] (0.5 mg/Kg/dose), 89.2%; in series [1] (1.0 mg/Kg/dose) it was 105.9%. Moreover, in the series “Acute toxicities in mice”, the LD50 is more than 800 mg/kg.
Turning to “2-[3-(2-chloroethyl)-3-nitrosoureido]-2-deoxy-D-glucopyranose monopalmitate”, the Median survival time in series [1] (0.125 mg/Kg/dose) worked out at 14.8 days; in series [1] (0.25 mg/Kg/dose) it was 15.5 days; in series [1] (0.5 mg/Kg/dose), 16.3 days; in series [1] (1.0 mg/Kg/dose), 17.5 days. Also, the “Increase of Life Span” value in series [1] (0.125 mg/Kg/dose) turned out to be 45.1%; in series [1] (0.25 mg/Kg/dose), 52.0%; in series [1] (0.5 mg/Kg/dose), 59.8%; in series [1] (1.0 mg/Kg/dose), 71.6%. Further, in “Acute toxicities in mice”, the LD50 worked out at 162.5 mg/kg.

In general, LD50 refers to the dose at which mortality reaches 50%.
